Earlier results on one compound are cited in patent publication US20250250539A1, “METHOD FOR EVALUATING ACTIVITY OF INHIBITING OR PROMOTING AGGREGATION OF AGGREGATING PROTEINS” (KANEKA CORPORATION, priority 2022, published 2025).

The data set deals with amyloid β protein. To be noted: known cell-free evaluation system.

For `O=C(/C=C/c1ccc(O)c(O)c1)O[C@H](Cc1ccc(O)c(O)c1)C(=O)O` [rosmarinic acid], the “activity of inhibiting aggregation” value is given as “exhibiting activity of inhibiting aggregation”.
